In US20020123077A1, “Novel compounds capable of modulating biofilms” (priority 2000, published 2002):

Tested on: P. aeruginosa PA14
Experiment: Potentiation of gentamycin on pre-formed biofilm
Assay type: cell-based, Pseudomonas aeruginosa
Conditions: 9 hr biofilm, M63 + arginine; BIF ~1 μM, Gm 0.1 mg/ml; 14 hours of incubation
Description: FIG. 10 is a bar graph showing the ability of purified BIF to potentiate the activity of gentamycin (Gm). A biofilm of P. aeruginosa PA14 was pre-formed by growing the bacteria for 9 hrs in minimal M63 medium supplemented with arginine (0.4%) in 96 well dishes (100 μl of medium per well). After 9 hrs, half of the media was removed and replaced with fresh medium containing Gm (0.1 mg/ml final concentration), BIF (˜1 μM final concentration), or both compounds. The biofilm was quantitated after an additional 14 hrs of incubation.
We predicted that addition of purified BIF might potentiate the effects of antimicrobial compounds. To test this hypothesis, we pre-formed a biofilm of P. aeruginosa by growing the bacteria for 9 hrs by growth in minimal M63 medium supplemented with arginine (0.4%) in 96 well dishes. The preformed biofilms were then treated with BIF alone or BIF plus gentamycin (Gm) at 0.1 mg/ml final concentration. At the concentrations tested, BIF (˜1 μM) and Gm (0.1 mg/ml) had no effect on pre-formed biofilms of P. aeruginosa when these compounds were used individually (FIG. 10).

## gentamycin [Gm]
  effect on pre-formed biofilms of P. aeruginosa: no effect
